Assays:
[1] = tested on: renal toxic effects of cisplatin in the rat; test: Cisplatin renal toxicity in male Sprague-Dawley rat; format: in vivo
Experimental: Compound (SEQ ID #45) was tested in male Sprague-Dawley rats (250 gm to 300 gm) to establish the dose range and the extent to which the compound is able to prophylactically and therapeutically ameliorate the renal toxic effects of cisplatin. The cisplatin dosing level was the chemotherapeutic level used in humans, 40 ug/kg bw. The end points were the level of creatinine in serum and kidney histology. The positive control used was 250 ug/kg bw of the mature form of recombinant human BMP-7 (rhmBMP-7).
A stock solution (70 mg/ml) of the test article (SEQ ID #45) was made by dissolving it in 20 mM Acetate (ph 4.2). The stock solution was further diluted into phosphate buffered saline (PBS, pH 7.2) plus 5% Mannitol to compound concentrations of 14 mg/ml (28 mg/kg dose), 1.4 mg/ml (2.8 mg/kg dose) and 0.14 mg/ml (0.28 mg/kg dose).
Cisplatin was administered via i.p. injection (40 ug/kg bw) at time zero. Administration of therapeutic dosing of the compound, the rhmBMP-7 positive control and vehicle negative control were by slow bolus i.v. injection through the tail vein at five time points: 2 hours before the administration of cisplatin, then at 24 hours, 48 hours, 72 hours and 96 hours post cisplatin administration. Blood samples were collected through the tail vein at time points of 0, 24, 48, 72 and 96 hours. At seven day sample was collected by exsanguination at sacrifice. Serum was prepared from the blood samples and analyzed for creatinine concentration. The serum concentration of creatinine, a byproduct of muscle activity that is released into the blood stream and cleared through the kidneys, is a marker of kidney function that tends to rise when kidney function becomes severely compromised (FIG. 18).
Upon sacrifice at seven days, the kidneys were harvested, fixed in formalin and imbedded in paraffin. They were then sagitally sectioned and stained in H&E stain. Kidney sections were also stained with anti-bodies against proliferating cell nuclear antigen (PCNA) (to identify sites of cell regeneration), macrophages, ICAM-1, and smooth muscle. Also collected at sacrifice were tissues at and around the injection site (FIG. 19A-FIG. 19B).

[2] = tested on: mouse model of nephrotoxic serum nephritis; test: Nephrotoxic serum nephritis (NTN) model of chronic renal injury; format: in vivo; settings: oral 5 mg/kg/24 hr
Experimental: Attenuation of renal fibrosis progression by Thrasos compound in a mouse model of nephrotoxic serum nephritis. FIG. 8A: Kidney section of vehicle-treated animal, FIG. 8B: Kidney section of animal received oral administration of compound SEQ ID NO 45 (5 mg/kg/24 hr).
Nephrotoxic serum nephritis (NTN) is a model of progressive chronic renal injury. Mice given injections of nephrotoxic serum (NTS) develop glomerulonephritis, leading to tubulointerstitial disease associated with EMT, and ultimately renal fibrosis, over a period of about six weeks. […] In these studies, BMP-7 was able to restore expression of E-cadherin proteins in previously damaged tubules. […] For a review of the above see, Zeisberg et al., Nature Medicine, 9; 7 pp 964-968, (2003) and Kalluri et al., J. Clin Investigation 112:1776-1784 (2003).

[3] = tested on: CD1 mouse model of streptozotocin (STZ)-induced diabetic nephropathy; test: Streptozotocin (STZ)-induced diabetic nephropathy; format: in vivo; settings: ip 5 mg/kg/24 hr; after one month treatment
Experimental: Reversal of interstitial fibrosis by Thrasos compound SEQ ID NO 45 in a CD1 mouse model of streptozotocin (STZ)-induced diabetic nephropathy. FIG. 7A. schematic of the experimental protocol, FIG. 7B: Kidney section of vehicle-treated animal, FIG. 7C: Kidney section of animal received ip administration of Thrasos compound (5 mg/kg/24 hr). Sac: After one month treatment.

Smad1 = Smad1 nuclear translocation in HK-2 cells (immunofluorescence); format: cell-based, human; settings: 1.3 uM and 33 uM compound
Experimental: Phosphorylation and nuclear translocation of Smads occurs following the activation of Type I and Type II receptors and subsequent signal transduction to intracellular Smad targets. Phosphorylation and nuclear translocation of R-Smad in HK-2 cells by TDFRP compounds is assayed by immuno-fluorescent microscopy methods, using anti-phospho Smad 1/5 antibodies according to the procedure of H Aoki, M Fujii, T Imamura, K Yagi, K Takehara, M Kato and K Miyazono. J. of Cell Sci. 114, 1483-1489, 2001) and by Western blot analysis (FIG. 15A-FIG. 15C).
HK2, human proximal tubule cells are incubated in culture medium alone or exposed TDFRP or control compounds for one hour ten minutes at 37 degree C. BMP-7 served as a positive control in the assay. Each well is rinsed with 1 mL prewarmed medium. 1 mL per well of cold Acetone/Methanol mix (1:1) is added and incubated for 2 minutes at room temperature to fix the cells. Wells are washed with 1 mL of cold PBS and blocked with 1 mL blocking buffer (3% BSA, 1% goat serum in PBS) for 7 minutes. Wells are aspirated without disturbing the cells, and 500 uL/well primary antibody is added (anti-phospho-Smad 1) at 0.056 ug/mL concentration in 3% BSA in PBS (no goat serum). Cells are incubated overnight at 4 degrees C. […]

Sequence: CYFDDSSNVLCKKYRS [SEQ ID NO 45]
- cisplatin-induced inflammation of the kidney cortex ([1]; 2.8 mg/kg bw): significantly reduced
- ICAM-1 release ([1]; 2.8 mg/kg bw, kidney sections): reduced
- degree of cellular regeneration (PCNA) ([1]; 2.8 mg/kg bw, kidney sections): increased
- macrophage infiltration ([1]; 2.8 mg/kg bw, kidney sections): reduced
- smooth muscle loss ([1]; 2.8 mg/kg bw, kidney sections): reduced
- cisplatin-induced level of creatinine in serum ([1]; 0.28, 2.8 and 28 mg/kg bw i.v.): reduces the cisplatin-induced level of creatinine in serum
- reduction of serum creatinine rise following cisplatin, versus positive control ([1]; highest dose (28 mg/kg), positive control rhmBMP-7): more efficacious than the positive control
- nephrotoxic effects of cisplatin exposure ([1]; rat, in vivo): can reduce or ameliorate the nephrotoxic effects of cisplatin exposure
- renal fibrosis [2]: significantly attenuated progression of renal fibrosis
- renal interstitial fibrosis [3]: effectively reversed renal interstitial fibrosis
- Smad1 translocation (Smad1): Smad1 Translocation
